Values after ≈ are worked out from the molar mass of the structure shown. Where a name gives a salt, the structure may show the parent alone.
Legend:
[1] = test system: B. subtilis RB1; test: Antibacterial assay, standard microtitration, MIC; type: cell-based; conditions: Gram positive; for MIC: Bacillus subtilis, read-out: Minimum Inhibitory Concentrations, B. subtilis RB1
Protocol: (§1) The compounds of the present invention were tested against an assortment of gram negative and gram positive organisms using standard microtitration techniques (Cohen, et al., Antimicrob. Agents Chemother., 1985;28:766; Heifetz, et al. Antimicrob. Agents Chemother., 1974;6:124).

[2] = test system: E. coli B90; test: Antibacterial assay, standard microtitration, MIC; type: cell-based; conditions: Gram negative; for MIC: Escherichia coli, read-out: Minimum Inhibitory Concentrations, E. coli B90
Protocol: as §1

[3] = test system: E. coli MC4100; test: Antibacterial assay, standard microtitration, MIC; type: cell-based; conditions: Gram negative; for MIC: Escherichia coli, read-out: Minimum Inhibitory Concentrations, E. coli MC4100
Protocol: as §1

[4] = test system: E. coli To1C; test: Antibacterial assay, standard microtitration, MIC; type: cell-based; conditions: for MIC: Escherichia coli, TO1C, read-out: Minimum Inhibitory Concentrations, E. coli To1C; for Minimum Inhibitory Concentrations, E. coli To1C: Gram negative
Protocol: as §1

[5] = test system: S. aureus 29213; test: Antibacterial assay, standard microtitration, MIC; type: cell-based; conditions: Gram positive; for MIC: Staphylococcus aureus, read-out: Minimum Inhibitory Concentrations, S. aureus 29213
Protocol: as §1

[6] = test system: S. pyogenes C203; test: Antibacterial assay, standard microtitration, MIC; type: cell-based; conditions: Gram positive; for MIC: Streptococcus pyogenes, read-out: Minimum Inhibitory Concentrations, S. pyogenes C203
Protocol: as §1

melting point	SMILES	MIC [1]	MIC [2]	MIC [3]	MIC [4]	MIC [5]	MIC [6]	also measured
	CC(=O)OCCOc1cc2c3c(cccc3c1)C(=O)N(O)C2=O [Example 23, 2-Hydroxy-5-(2-acetoxy-ethoxy)-benzo[de]isoquinoline-1,3-dione]	4 µg/mL (≈ 12.7 µM)	2 µg/mL (≈ 6.34 µM)	16 µg/mL (≈ 50.7 µM)	1 µg/mL (≈ 3.17 µM)	> 64 µg/mL	> 64 µg/mL	
	CN(C)CCN1C(=O)c2cccc3cc([N+](=O)[O-])cc(c23)C1=O [Mitonafide, mitonafide, reference compound]	16 µg/mL (≈ 51.1 µM)	8 µg/mL (≈ 25.5 µM)	32 µg/mL (≈ 102 µM)		32 µg/mL (≈ 102 µM)	4 µg/mL (≈ 12.8 µM)	
	O=C1c2cccc3c(N4CCCC4)ccc(c23)C(=O)N1O [Example 18, 2-Hydroxy-6-(pyrrolidin-1-yl)-benzo[de]isoquinoline-1,3-dione]	2 µg/mL (≈ 7.08 µM)	4 µg/mL (≈ 14.2 µM)	> 64 µg/mL	1 µg/mL (≈ 3.54 µM)	1 µg/mL (≈ 3.54 µM)	4 µg/mL (≈ 14.2 µM)	
197 to 201 °C	O=C1c2cccc3c(N4CC[C@H](O)C4)c(Cl)cc(c23)C(=O)N1O [Example 84]							
292 to 295 °C	CC(=O)Nc1cc2c3c(cccc3c1[SH]1CCNCC1)C(=O)C(O)C2=O (stereo not drawn) [Example 67]							
	NC1CCN(c2c(Cl)cc3c4c(cccc24)C(=O)N(O)C3=O)C1.O=C(O)C(F)(F)F (stereo not drawn) [Example 99]							Minimum Inhibitory Concentrations, B. subtilis RB1 [1]: 1.0 µg/mL; Minimum Inhibitory Concentrations, E. coli B90 [2]: 1.0 µg/mL; Minimum Inhibitory Concentrations, E. coli MC4100 [3]: 2.0 µg/mL; Minimum Inhibitory Concentrations, E. coli To1C [4]: 0.5 µg/mL; Minimum Inhibitory Concentrations, S. aureus 29213 [5]: 8.0 µg/mL; Minimum Inhibitory Concentrations, S. pyogenes C203 [6]: 4.0 µg/mL
	CN(C)c1c(Br)cc2c3c(cccc13)C(=O)N(O)C2=O [Example 53, 5-Bromo-6-dimethylamino-2-hydroxy-benzo[de]isoquinoline-1,3-dione]	2 µg/mL (≈ 5.97 µM)	2 µg/mL (≈ 5.97 µM)	64 µg/mL (≈ 191 µM)	1 µg/mL (≈ 2.98 µM)	4 µg/mL (≈ 11.9 µM)	32 µg/mL (≈ 95.5 µM)	
	CC(C)NCC1CCN(c2c(Cl)cc3c4c(cccc24)C(=O)N(O)C3=O)C1.O=C(O)C(F)(F)F (stereo not drawn) [Example 86]							Minimum Inhibitory Concentrations, B. subtilis RB1 [1]: 2.0 µg/mL; Minimum Inhibitory Concentrations, E. coli B90 [2]: 0.5 µg/mL; Minimum Inhibitory Concentrations, E. coli MC4100 [3]: 8.0 µg/mL; Minimum Inhibitory Concentrations, E. coli To1C [4]: 0.5 µg/mL; Minimum Inhibitory Concentrations, S. aureus 29213 [5]: 4.0 µg/mL; Minimum Inhibitory Concentrations, S. pyogenes C203 [6]: 4.0 µg/mL
	O=C1c2cccc3c(N4CCCC4)c(F)cc(c23)C(=O)N1O [Example 134, 5-Fluoro-2-hydroxy-6-(pyrrolidin-1-yl)-benzo[de]isoquinoline-1,3-dione]	1 µg/mL (≈ 3.33 µM)	0.5 µg/mL (≈ 1.67 µM)	> 64 µg/mL	0.5 µg/mL (≈ 1.67 µM)	1 µg/mL (≈ 3.33 µM)	8 µg/mL (≈ 26.6 µM)	
	O=C1c2cc([N+](=O)[O-])cc3c(N4CCCC4)c([N+](=O)[O-])cc(c23)C(=O)N1O [Example 111, 2-Hydroxy-5,8-dinitro-6-(pyrrolidin-1-yl)-benzo[de]isoquinoline-1,3-dione]	32 µg/mL (≈ 86 µM)	2 µg/mL (≈ 5.37 µM)	> 64 µg/mL	4 µg/mL (≈ 10.7 µM)	8 µg/mL (≈ 21.5 µM)	> 64 µg/mL	
	CCOc1cc2c3c(cccc3c1)C(=O)N(O)C2=O [Example 14, 5-Ethoxy-2-hydroxy-benzo[de]isoquinoline-1,3-dione]	1 µg/mL (≈ 3.89 µM)	0.25 µg/mL (≈ 0.972 µM)	2 µg/mL (≈ 7.77 µM)	0.13 µg/mL (≈ 0.505 µM)	8 µg/mL (≈ 31.1 µM)	> 64 µg/mL	
	Cc1cc2c3c(cccc3c1Br)C(=O)N(O)C2=O [Example 104, 6-Bromo-5-methyl-2-hydroxy-benzo[de]isoquinoline-1,3-dione]	0.5 µg/mL (≈ 1.63 µM)	0.25 µg/mL (≈ 0.817 µM)	> 64 µg/mL	0.25 µg/mL (≈ 0.817 µM)	4 µg/mL (≈ 13.1 µM)	> 64 µg/mL	
	O=C1c2ccc([N+](=O)[O-])c3c([N+](=O)[O-])ccc(c23)C(=O)N1O [Example 48, 2-Hydroxy-6,7-dinitro-benzo[de]isoquinoline-1,3-dione]	8 µg/mL (≈ 26.4 µM)	4 µg/mL (≈ 13.2 µM)	16 µg/mL (≈ 52.8 µM)	4 µg/mL (≈ 13.2 µM)	2 µg/mL (≈ 6.6 µM)	1 µg/mL (≈ 3.3 µM)	
	COc1cc2c3c(cccc3c1N1CCCCC1)C(=O)N(O)C2=O [Example 35, 2-Hydroxy-5-methoxy-6-(piperidin-1-yl)-benzo[de]isoquinoline-1,3-dione]	2 µg/mL (≈ 6.13 µM)	64 µg/mL (≈ 196 µM)	> 64 µg/mL	64 µg/mL (≈ 196 µM)	1 µg/mL (≈ 3.06 µM)	4 µg/mL (≈ 12.3 µM)	
252 to 255 °C	CC(=O)Nc1cc2c3c(cccc3c1N1CCCCC1)C(=O)C(O)C2=O (stereo not drawn) [Example 65]							
194 to 196 °C	CCCCCN1COc2cc3c4c(cccc4c2C1)C(=O)N(O)C3=O [Example 129]							
	O=C1c2cccc3c([N+](=O)[O-])c(Br)cc(c23)C(=O)N1O [Example 108, 5-Bromo-2-hydroxy-6-nitro-benzo[de]isoquinoline-1,3-dione]	2 µg/mL (≈ 5.93 µM)	0.25 µg/mL (≈ 0.742 µM)	8 µg/mL (≈ 23.7 µM)	0.5 µg/mL (≈ 1.48 µM)	4 µg/mL (≈ 11.9 µM)	16 µg/mL (≈ 47.5 µM)	
	CC(=O)Nc1cc2c3c(cccc3c1N1CCCC1)C(=O)N(O)C2=O [Example 64, 5-Acetamido-2-hydroxy-6-(pyrrolidin-1yl)-benzo[de]isoquinoline-1,3-dione]	64 µg/mL (≈ 189 µM)	32 µg/mL (≈ 94.3 µM)	> 64 µg/mL	16 µg/mL (≈ 47.1 µM)	> 64 µg/mL	> 64 µg/mL	

melting point	SMILES	MIC [1]	MIC [2]	MIC [3]	MIC [4]	MIC [5]	MIC [6]	also measured
300 to 302 °C	O=C1c2cccc3c(N4CCNCC4)c([N+](=O)[O-])cc(c23)C(=O)N1O							
	Cl.N[C@H]1CCN(c2c(Br)cc3c4c(cccc24)C(=O)N(O)C3=O)C1 [Example 54, (S)-6-(3-Amino-pyrrolidin-1-yl)-5-bromo-2-hydroxy-1H-benzo[de]isoquinoline-1,3-dione, Hydrochloride]	2 µg/mL	0.5 µg/mL	2 µg/mL	0.5 µg/mL	8 µg/mL	4 µg/mL	
> 250 °C	CNC(=O)Nc1cc2c3c(cccc3c1)C(=O)N(O)C2=O [Example 101]							
270 to 274 °C	Nc1cc2c3c(cccc3c1[SH]1CCNCC1)C(=O)N(O)C2=O [Example 73]							
240 to 242 °C	O=C1c2cccc3c([SH]4CCNCC4)c(Cl)cc(c23)C(=O)N1O [Example 95]							
	Cc1cc2c3c(cccc3c1)C(=O)N(O)C2=O [Example 21, 2-Hydroxy-5-methyl-benzo[de]isoquinoline-1,3-dione]	4 µg/mL (≈ 17.6 µM)	2 µg/mL (≈ 8.8 µM)	8 µg/mL (≈ 35.2 µM)	1 µg/mL (≈ 4.4 µM)	16 µg/mL (≈ 70.4 µM)	64 µg/mL (≈ 282 µM)	
	O=C1c2cccc3c4c(cc(c23)C(=O)N1O)OCN(C1CC1)C4 [Example 131]							Minimum Inhibitory Concentrations, B. subtilis RB1 [1]: 32 µg/mL; Minimum Inhibitory Concentrations, E. coli B90 [2]: 8.0 µg/mL; Minimum Inhibitory Concentrations, E. coli MC4100 [3]: 32 µg/mL; Minimum Inhibitory Concentrations, E. coli To1C [4]: 8.0 µg/mL; Minimum Inhibitory Concentrations, S. aureus 29213 [5]: >64 µg/mL; Minimum Inhibitory Concentrations, S. pyogenes C203 [6]: >64 µg/mL
259 to 263 °C	NC1CCN(c2c([N+](=O)[O-])cc3c4c(cccc24)C(=O)N(O)C3=O)C1 (stereo not drawn) [Example 82]							
	N#Cc1cc2c3c(cccc3c1N1CCCC1)C(=O)N(O)C2=O [Example 57, 5-Cyano-2-hydroxy-6-(pyrrolidin-1-yl)-benzo[de]isoquinoline-1,3-dione]	1 µg/mL (≈ 3.25 µM)	0.5 µg/mL (≈ 1.63 µM)	32 µg/mL (≈ 104 µM)	0.5 µg/mL (≈ 1.63 µM)	4 µg/mL (≈ 13 µM)	32 µg/mL (≈ 104 µM)	
320 to 322 °C	CN1CCN(c2c([N+](=O)[O-])cc3c4c(cccc24)C(=O)N(O)C3=O)CC1 [Example 80]							
228 to 229 °C	O=C1c2cccc3c(N4CCCCC4)c(Cl)cc(c23)C(=O)N1O [Example 94]							
	O=C1c2cccc3c4c(cc(c23)C(=O)N1O)OCOC4 [Example 45, 5-Hydroxy-11H-8,10-dioxa-5-aza-benzo[de]anthracene-4,6-dione]	0.25 µg/mL (≈ 0.922 µM)	0.13 µg/mL (≈ 0.479 µM)	0.5 µg/mL (≈ 1.84 µM)	0.13 µg/mL (≈ 0.479 µM)	1 µg/mL (≈ 3.69 µM)	8 µg/mL (≈ 29.5 µM)	
> 250 °C	CCCCNC(=O)Nc1cc2c3c(cccc3c1)C(=O)N(O)C2=O [Example 100]							
247 to 249 °C	CN1COc2cc3c4c(cccc4c2C1)C(=O)N(O)C3=O [Example 127]							
280 to 283 °C	O=C1c2cccc3c([SH]4CCNCC4)c([N+](=O)[O-])cc(c23)C(=O)N1O [Example 78]							
252 to 254 °C	O=C1c2cccc3c(N4CCCCC4)c([N+](=O)[O-])cc(c23)C(=O)N1O [Example 77]							
	O=C1c2cccc3c(N4CCCCC4)c(Br)cc(c23)C(=O)N1O [Example 49, 5-Bromo-2-hydroxy-6-(piperidine-1-yl)-benzo[de]isoquinoline-1,3-dione]	1 µg/mL (≈ 2.67 µM)	4 µg/mL (≈ 10.7 µM)	64 µg/mL (≈ 171 µM)	8 µg/mL (≈ 21.3 µM)	2 µg/mL (≈ 5.33 µM)	64 µg/mL (≈ 171 µM)	

SMILES	melting point	MIC [1]	MIC [2]	MIC [3]	MIC [4]	MIC [5]	MIC [6]	also measured
CCCNC(=O)Nc1cc2c3c(cccc3c1)C(=O)N(O)C2=O [Example 102]	> 250 °C	16 µg/mL (≈ 51.1 µM)	32 µg/mL (≈ 102 µM)	> 64 µg/mL	16 µg/mL (≈ 51.1 µM)	> 64 µg/mL	> 64 µg/mL	
NCC1CCN(c2c(Cl)cc3c4c(cccc24)C(=O)N(O)C3=O)C1 (stereo not drawn) (as salt: HCl) [Example 85]	229 to 232 °C							
CN1CCN(c2c(Cl)cc3c4c(cccc24)C(=O)N(O)C3=O)CC1 (as salt: TFA) [Example 98]	> 250 °C							
CC1(CN)CCN(c2c(Cl)cc3c4c(cccc24)C(=O)N(O)C3=O)C1 (stereo not drawn) (as salt: TFA) [Example 89]	160 to 166 °C							

Source: US6362181B1, “Isoquinolones” (Warner-Lambert Company, priority 1996, dated 2002)
